pEC50: −log10 of the molar value.

One data set concerns VEEV (TC-83). Kind of data set: microbe, parasite or virus in culture. Type of data set: cell-based. To be noted: Venezuelan equine encephalitis virus, read-out: VEEV EC50.
Another data set has as its system CHIKV. Nature of the data set: CHIKV virus titer reduction (VTR) assay in NHDF cells. Type of data set: cell-based. The following applies: Chikungunya virus; for log reduction at 10 µM: CHIKV titer reduction at 10 μM, normal human dermal fibroblasts (NHDF) cells; for EC90: effective concentration of 90% inhibition of virus in a VTR assay, NHDF cells.
A further data set can be described thus: in vitro. To be noted: human.
Data set [1] deals with CHIKV linked NanoLuc luciferase reporter. Nature of the data set: microbe, parasite or virus in culture. To be noted: Chikungunya virus, read-out: CHIKV EC50. The data set is classed as cell-based.
In a further data set the test system is VEEV. Nature of the data set: microbe, parasite or virus in culture. The data set is classed as cell-based. The following applies: Venezuelan equine encephalitis virus, NHDF; for EC90: read-out: VEEV EC90; for log reduction at 10 µM: read-out: VEEV VTR.

In the case of `COC(=O)c1c(SCC(=O)NC23CC4CC(CC(C4)C2)C3)nc(=O)[nH]c1C` [compound 1], the results for the pEC50 (in the data set on VEEV (TC-83); in data set [1]) were 5.36 and 6.18, respectively. This compound yielded a log reduction at 10 µM in the data set with CHIKV of 6.9. The EC90 was 0.089 µM with CHIKV and 1.9 µM in the data set on VEEV. For the same compound, the CC50 in the data set “in vitro” is over 127 µM.

`Cc1[nH]c(=O)nc(SCC(=O)NC23CC4CC(CC(C4)C2)C3)c1C#N` [compound 2]: the figures for the pEC50 (in the data set with VEEV (TC-83); in data set [1]) were under 4.40 and 4.64, respectively. Moreover, the log reduction at 10 µM in the data set on CHIKV was found to be 1.25; in the data set on VEEV it was 1.1. Also, the CC50 in “in vitro” was over 40 µM.

Regarding `O=C(CSc1cc[nH]c(=O)n1)NC12CC3CC(CC(C3)C1)C2` [compound 3, N-(Adamantan-1-Yl)-2-((2-Oxo-1,2-Dihydropyrimidin-4-Yl)Thio)Acetamide], the results for the pEC50 (in the data set with VEEV (TC-83); in data set [1]) were 5.60 and 6.30, respectively. Also, the log reduction at 10 µM with CHIKV was determined as 7.44; with VEEV it was 4.49. The concentration for an effect of 90% (EC90) with CHIKV and with VEEV was 0.31 µM each time. In “in vitro”, this compound gave a CC50 of over 40 µM.

As to `O=C(CSc1cc[nH]c(=O)n1)NC1C2CC3CC(C2)CC1C3` (stereo not drawn) [compound 4, N-(Adamantan-2-Yl)-2-((2-Oxo-1,2-Dihydropyrimidin-4-Yl)Thio)Acetamide], the pEC50 in the data set on VEEV (TC-83) is 5.77; in data set [1] it was 6.36. Moreover, the log reduction at 10 µM in the data set with CHIKV stood at 7.3; in the data set with VEEV it was 5.88. In addition, the 90% effect level with CHIKV (EC90) was put at 0.61 µM. This compound also displayed a CC50 in “in vitro” of over 40 µM.

With `CC(C)Cc1cc(C(=O)NCCC23CC4CC(CC(C4)C2)C3)nc(=O)[nH]1` [compound 5, N-(2-(Adamantan-1-Yl)Ethyl)-6-Isobutyl-2-Oxo-1,2-Dihydropyrimidine-4-Carboxamide], the pEC50 in the data set with VEEV (TC-83) was under 4.40; in data set [1], 4.45. In the data set “in vitro”, this compound came in with a CC50 of over 40 µM.

Take `O=C(CNc1cc[nH]c(=O)n1)NC12CC3CC(CC(C3)C1)C2` [compound 6, N-(adamantan-1-yl)-2-((2-oxo-1,2-dihydropyrimidin-4-yl)amino)acetamide]: the results for the pEC50 (with VEEV (TC-83); in data set [1]) were under 4.40 and 4.93, respectively. In addition, the CC50 in the data set “in vitro” was over 40 µM.

As for `O=C(COc1cc[nH]c(=O)n1)NC1C2CC3CC(C2)CC1C3` (stereo not drawn) [compound 8, N-(Adamantan-2-Yl)-2-((2-Oxo-1,2-Dihydropyrimidin-4-Yl)Oxy)Acetamide], the pEC50 (in the data set with VEEV (TC-83); in data set [1]) was under 4.40 throughout. The log reduction at 10 µM in the data set on CHIKV was determined as 1.05; with VEEV, 1.94. Moreover, the figures for the EC90 with CHIKV and in the data set on VEEV were 0.21 µM and 0.08 µM, respectively. In “in vitro”, this compound gave a CC50 of over 40 µM.

With `Cc1cc(OCC(=O)NC23CC4CC(CC(C4)C2)C3)nc(=O)[nH]1` [compound 9, N-(Adamantan-1-Yl)-2-((6-Methyl-2-Oxo-1,2-Dihydropyrimidin-4-Yl)Oxy)Acetamide], the pEC50 with VEEV (TC-83) is 4.70; in data set [1], 5.92. Also, the log reduction at 10 µM in the data set with CHIKV was found to be 1.81; in the data set on VEEV, 1.37. Besides, the EC90 is 3.5 µM with CHIKV and 1.1 µM in the data set on VEEV. This compound came in with a CC50 in “in vitro” of over 40 µM.

For the compound `CC(C)Cc1cc(OCC(=O)NC23CC4CC(CC(C4)C2)C3)nc(=O)[nH]1` [compound 10, N-(Adamantan-1-Yl)-2-((6-Isobutyl-2-Oxo-1,2-Dihydropyrimidin-4-Yl)Oxy)Acetamide], the figures for the pEC50 (in the data set with VEEV (TC-83); in data set [1]) were 4.71 and 5.94, respectively. Besides, the log reduction at 10 µM came to 8.16 in the data set on CHIKV and 2.74 with VEEV. Also, the results for the EC90 with CHIKV and in the data set on VEEV were 0.31 µM and 1.2 µM, respectively. In addition, the CC50 in the data set “in vitro” was over 40 µM.

`O=C(COc1cc(C2CC2)[nH]c(=O)n1)NC12CC3CC(CC(C3)C1)C2` [compound 11, N-(Adamantan-1-Yl)-2-((6-Cyclopropyl-2-Oxo-1,2-Dihydropyrimidin-4-Yl)Oxy)Acetamide]: the pEC50 was 4.69 with VEEV (TC-83) and 6.62 in data set [1]. Besides, the values for the log reduction at 10 µM with CHIKV and in the data set on VEEV were 1.05 and 2.97, respectively. Further, the figures for the EC90 in the data set with CHIKV and in the data set with VEEV were 0.56 µM and 1.1 µM, respectively. Besides, the CC50 in the data set “in vitro” was over 40 µM.

On to `O=C(COc1cc(C2CCC2)[nH]c(=O)n1)NC12CC3CC(CC(C3)C1)C2` [compound 12, N-(Adamantan-1-Yl)-2-((6-Cyclobutyl-2-Oxo-1,2-Dihydropyrimidin-4-Yl)Oxy)Acetamide], for which the pEC50 in the data set on VEEV (TC-83) was 5.73; in data set [1], 6.96. Also, the values for the log reduction at 10 µM in the data set on CHIKV and with VEEV were 3.31 and 3.1, respectively. The concentration for an effect of 90% (EC90) in the data set with CHIKV and in the data set on VEEV was 0.1 µM each time. Besides, the CC50 in “in vitro” was over 40 µM.

Consider `O=C(COc1cc(C2CCCC2)[nH]c(=O)n1)NC12CC3CC(CC(C3)C1)C2` [compound 13, N-(Adamantan-1-Yl)-2-((6-Cyclopentyl-2-Oxo-1,2-Dihydropyrimidin-4-Yl)Oxy)Acetamide], for which the results for the pEC50 (in the data set on VEEV (TC-83); in data set [1]) were 4.76 and 5.91, respectively. Further, the log reduction at 10 µM stood at 5.93 in the data set on CHIKV and 1.94 with VEEV. In addition, the EC90 was found to be 0.04 µM in the data set with CHIKV and 4.5 µM in the data set on VEEV. The compound further showed a CC50 in the data set “in vitro” of over 40 µM.

As to `CC(C)(C)c1ccc(NC(=O)c2cc[nH]c(=O)n2)cc1` [compound 30, N-(4-(Tert.-Butyl)Phenyl)-2-Oxo-1,2-Dihydropyrimidine-4-Carboxamide], the pEC50 in the data set with VEEV (TC-83) is under 4.40; in data set [1], 4.58. In “in vitro”, the CC50 is over 40 µM.

Consider `CC(C)Cc1cc(C(=O)Nc2ccc(C(C)(C)C)cc2)nc(=O)[nH]1` [compound 31, N-(4-(Tert.-Butyl)Phenyl)-6-Isobutyl-2-Oxo-1,2-Dihydropyrimidine-4-Carboxamide], for which the pEC50 was under 4.40 in the data set on VEEV (TC-83) and 4.88 in data set [1]. Moreover, in “in vitro”, the CC50 was over 40 µM.

For the compound `O=C(COc1cc(OCCO)[nH]c(=O)n1)NC12CC3CC(CC(C3)C1)C2` [compound 32, N-(adamantan-1-yl)-2-((6-(2-hydroxyethoxy)-2-oxo-1,2-dihydropyrimidin-4-yl)oxy)acetamide], the pEC50 in the data set on VEEV (TC-83) was under 4.40. In the data set with CHIKV, this compound gave a log reduction at 10 µM of 3.45 and an EC90 of 0.61 µM. Further, the CC50 in “in vitro” is over 40 µM. For the same compound, the negative logarithm of the EC50 (pEC50) in data set [1] was 5.33.

As to `O=C(COc1nc(=O)[nH]c(N2CCOCC2)c1F)NC12CC3CC(CC(C3)C1)C2` [compound 33, N-(Adamantan-1-Yl)-2-((5-Fluoro-6-Morpholino-2-Oxo-1,2-Dihydropyrimidin-4-Yl)Oxy)Acetamide], the negative logarithm of the EC50 (pEC50) in the data set on VEEV (TC-83) is 4.62; in data set [1], 5.74. This compound also registered a log reduction at 10 µM in the data set with CHIKV of 6.08. This compound also displayed a 90% effect concentration (EC90) in the data set on CHIKV of 0.15 µM. Further, the CC50 in the data set “in vitro” is over 40 µM.

For the compound `CCCCOC(=O)c1cc(SCC(=O)NC23CC4CC(CC(C4)C2)C3)nc(=O)[nH]1` [compound 39, Butyl 6-((2-((-Adamantan-1-Yl)Amino)-2-Oxoethyl)Thio)-2-Oxo-2,3-Dihydropyrimidine-4-Carboxylate], the negative-log EC50 (pEC50) (in the data set on VEEV (TC-83); in data set [1]) was under 4.40 in each case. Also, the CC50 in “in vitro” is over 40 µM.

`O=C(CSc1cc(C(=O)O)[nH]c(=O)n1)NC12CC3CC(CC(C3)C1)C2` [compound 40, 6-((2-((adamantan-1-yl)amino)-2-oxoethyl)thio)-2-oxo-2,3-dihydropyrimidine-4-carboxylic acid]: the pEC50 (in the data set on VEEV (TC-83); in data set [1]) was under 4.40 throughout. In “in vitro”, this compound registered a CC50 of over 40 µM.

With `O=C(CSc1cc[nH]c(=O)n1)NCC12CC3CC(CC(C3)C1)C2` [compound 41, N-((Adamantan-1-Yl)Methyl)-2-((2-Oxo-1,2-Dihydropyrimidin-4-Yl)Thio)Acetamide], the negative-log EC50 (pEC50) (with VEEV (TC-83); in data set [1]) was under 4.40 throughout. The compound further yielded a CC50 in “in vitro” of over 40 µM.

With `O=C(NC12CC3CC(CC(C3)C1)C2)c1cc[nH]c(=O)n1` [compound 42, N-((Adamantan-1-Yl)-2-Oxo-1,2-Dihydropyrimidine-4-Carboxamide], the pEC50 (in the data set on VEEV (TC-83); in data set [1]) was under 4.40 in each case. This compound registered a CC50 in the data set “in vitro” of over 40 µM.

As to `CC(C)Cc1cc(C(=O)NC23CC4CC(CC(C4)C2)C3)nc(=O)[nH]1` [compound 43, N-(Adamantan-1-Yl)-6-Isobutyl-2-Oxo-1,2-Dihydropyrimidine-4-Carboxamide], the pEC50 (in the data set on VEEV (TC-83); in data set [1]) was under 4.40 throughout. Further, the CC50 in “in vitro” is over 40 µM.

Consider `O=C(COc1cc(OC2COC2)[nH]c(=O)n1)NC12CC3CC(CC(C3)C1)C2` [compound 53, N-(Adamantan-1-Yl)-2-((6-(Oxetan-3-Yloxy)-2-Oxo-1,2-Dihydropyrimidin-4-Yl)Oxy)Acetamide], for which the pEC50 was under 4.40 in the data set with VEEV (TC-83) and 4.55 in data set [1]. The CC50 in “in vitro” is over 40 µM.

As to `CC(C)Oc1[nH]c(=O)nc(OCC(=O)NC23CC4CC(CC(C4)C2)C3)c1F` [compound 54, N-(Adamantan-1-Yl)-2-((5-Fluoro-6-Isopropoxy-2-Oxo-1,2-Dihydropyrimidin-4-Yl)Oxy)Acetamide], the values for the pEC50 (in the data set with VEEV (TC-83); in data set [1]) were under 4.40 and 4.67, respectively. The CC50 in the data set “in vitro” is over 40 µM.

Take `O=C(COc1cc(OCC(F)(F)F)[nH]c(=O)n1)NC12CC3CC(CC(C3)C1)C2` [compound 57, N-(adamantan-1-yl)-2-((2-oxo-6-(2,2,2-trifluoroethoxy)-1,2-dihydropyrimidin-4-yl)oxy)acetamide]: in the data set with VEEV (TC-83), the pEC50 is under 4.40. Also, in the data set with CHIKV, the log reduction at 10 µM worked out at 7.79 and the EC90 amounted to 0.3 µM. This compound also showed a CC50 in “in vitro” of over 40 µM. Besides, the pEC50 in data set [1] was 5.53.

Usually pEC50 stands for the EC50 on a negative log10 scale, so that one unit is a factor of ten. By EC90 is commonly meant the concentration at which the effect reaches the 90% level.

The values are drawn from patent US11932626B2, “2-pyrimidone analogs as potent antiviral agents against Alphaviruses” (priority 2020, dated 2024).
